Laboratory results as given in publication PMC9267955, “Antidiabetic, Antiglycation, and Antioxidant Activities of Ethanolic Seed Extract of Passiflora edulis and Piceatannol In Vitro” (Molecules, 2022).
Marks after values point to notes of the source that are not given here.

Experiments:
cultured myotubes = test system: cultured myotubes; design: method as in PMID 25832644; conditions: in the absence of insulin; cited from earlier work
[1] = test system: high-fat diet-fed C57BL/6J mice; design: method as in PMID 25832644; conditions: PIC supplementation; cited from earlier work
[2] = DPPH radical scavenging assay
Experimental: After incubation in the dark for 30 min, the absorbance was read at 516 nm, using a UV–Vis spectrophotometer (Agilent Technologies, Santa Clara, CA, USA). Results were expressed as the half-maximal inhibitory concentration (IC50) in μg/mL.

MCF-10A cells = test: Intracellular ROS level (DCFH-DA) after NNKOAc; type: cell-based; conditions: 50 µg/mL, 3 h pretreatment; NNKOAc 100 µM
Experimental: The generation of intracellular ROS in BEAS-2B, AML-12, and MCF-10A cells after treatments was measured as described previously. Briefly, DCFH-DA dye was readily taken up by cells and is subsequently hydrolyzed to DCFH, which can be oxidized to a measurable fluorescent product dichlorofluorescein (DCF). […] Cells with DMSO media (0.5%) served as the vehicle control. After treatments, DCFH-DA was added to the cell culture plates at a final concentration of 5 μM followed by 40 min incubation at dark. The fluorescence […] was then measured at an excitation and emission wavelength of 485 nm and 535 nm, using a microplate reader (Infinite® 200 PRO, TECAN, Männedorf, Switzerland).
BEAS-2B, MCF10-A, and AML-12, cells were purchased from the American Tissue Type Culture Collection (ATCC; CRL-9609, CRL-10317, and CRL-2254) and cultured with a specific medium. BEAS-2B cells were cultured with LHC-9 media at 37 °C in an incubator with 5% CO2. Culture flasks (polystyrene T75) were pre-coated with a mixture of 0.01 mg/mL fibronectin, 0.03 mg/mL bovine collagen type I, and 0.01 mg/mL bovine serum albumin were dissolved in LHC-9 medium overnight. […]

alpha-glucosidase = conditions: formation of p-nitrophenol; cited from earlier work
diabetic mice = test system: diabetic mice; design: method as in doi:10.32604/biocell.2020.08955; conditions: cited from earlier work
[3] = target: T1, alpha-amylase from porcine pancreas (Sus scrofa, UniProt P00690); test: Alpha-amylase inhibition assay; type: biochemical; conditions: pancreatic alpha-amylase; mean ± SD, triplicates
T1 construct: alpha-amylase from porcine pancreas; purchased Sigma-Aldrich (Oakville, ON, Canada); host or cells: porcine pancreas
T1 sequence (P00690 16-511): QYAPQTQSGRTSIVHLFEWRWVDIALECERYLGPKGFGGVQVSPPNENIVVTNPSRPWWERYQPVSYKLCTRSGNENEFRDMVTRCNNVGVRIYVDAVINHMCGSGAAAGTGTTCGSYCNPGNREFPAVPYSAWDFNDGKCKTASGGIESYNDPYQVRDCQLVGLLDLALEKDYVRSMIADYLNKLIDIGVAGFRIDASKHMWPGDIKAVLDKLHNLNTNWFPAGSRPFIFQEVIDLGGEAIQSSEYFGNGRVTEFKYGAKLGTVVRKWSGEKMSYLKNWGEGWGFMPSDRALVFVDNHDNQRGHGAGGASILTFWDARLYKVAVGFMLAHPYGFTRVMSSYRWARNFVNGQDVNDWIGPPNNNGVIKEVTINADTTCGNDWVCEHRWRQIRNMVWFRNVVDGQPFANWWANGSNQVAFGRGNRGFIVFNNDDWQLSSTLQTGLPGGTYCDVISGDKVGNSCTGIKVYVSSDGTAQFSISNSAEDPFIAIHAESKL
Experimental: Plant extract screening for alpha-amylase inhibition was conducted using the previously described method [46], with some modifications. Except as otherwise indicated, solutions were prepared in 0.01 M potassium phosphate buffer containing sodium chloride (60 mM) and sodium azide (0.02% w/v), pH 6.8. […] After 10 min of incubation at 37 °C, 20 µL of the substrate 2-chloro-4-nitrophenyl-α-D-maltotrioside (5 mM) was added. The mixture was then incubated for 30 min at 37 °C for the reaction to take place. The reaction was terminated by adding 240 µL of trisodium phosphate solution of pH 11 (1% w/v) to stop enzyme activity. […] The positive control was a mixture of enzyme and substrate without inhibitors. Sample control containing sample and buffer was used to eliminate color interference. Buffer was used as blank. The percentage of the alpha-amylase inhibition was calculated as I% = [(Abs0 − Abs1)/Abs0] × 100, where A0 is the absorbance of the positive control subtracted from the blank, Abs 1 is the absorbance in the presence of the extract subtracted from sample control. The IC50 (half-maximal inhibitory concentration) was calculated graphically, using an analytical curve by plotting the concentration versus the inhibition percentage (I%).

[4] = test system: amyloid fibrils of glycated BSA (BSA/MGO); test: Inhibition of amyloid fibril formation, ThT assay (BSA/MGO); type: biochemical, bovine; conditions: highest obtained, PESE 200, PIC 200, AMG 100 µg/mL
Experimental: The BSA-MGO assay was based on those described before, with some modifications. This experiment is based on the formation of fluorescent AGEs from the middle stage of protein glycation. MGO (1.5 mM) and BSA (3 mg/mL) were dissolved separately in 0.05 M phosphate buffer (pH 7.4) containing NaCl (100 mM) and NaN3 (0.02% w/v). Then, 300 μL of MGO was incubated with samples at different concentrations (dissolved in a buffer containing 60% ethanol) for an hour at 37 °C, in the dark, with constant stirring. After BSA (3 mg/mL) was added to the reaction mixture and incubation time was extended to 48 h at 37 °C in darkness. The rest of the procedure was the same as that for the BSA-glucose/fructose model that is described above. The percentage of the AGE inhibition and IC50 was calculated as described in Section 3.3.1.
The fibrillar state of modified BSA was determined with ThT as previously described. ThT is a probe that binds directly to amyloid fibrils to give a strong fluorescent signal and thus can be used to quantify β-amyloid due to protein glycation. Basically, 30 μL of glycated protein (approx. 1 mg/mL), obtained as described previously, was mixed with 100 μL ThT reagent (10 μM ThT in 100 mM phosphate buffer, pH 7.0), and fluorescence was collected at excitation/emission wavelengths of 450/490 nm in a microplate reader (Infinite® 200 PRO, TECAN, Männedorf, Switzerland). […]

Experimental for HOCl scavenging activity: Briefly, a freshly prepared HOCl solution, by adjusting the pH of a 1% solution of NaOCl to 6.2 with dropwise addition of diluted H2SO4, was diluted to 30 µM, using 100 mM phosphate buffer pH 7.4. […] QCT was used as means of comparison. Fluorescence assays were performed in a microplate reader (Infinite® 200 PRO, TECAN, Männedorf, Switzerland), at 37 °C, at wavelengths of 505 ± 10 nm and 530 ± 10 nm, for excitation and emission, respectively. The results were expressed as IC50 (μg/mL) of extract solution.

Structure (SMILES): Oc1cc(O)cc(/C=C/c2ccc(O)c(O)c2)c1 [PIC, 3,3′,4′,5-trans-tetrahydroxystilbene]
- Glucose uptake in cultured myotubes (cultured myotubes): promoted glucose uptake
- Fasting blood glucose, high-fat diet-fed C57BL/6J mice [1]: reduced fasting blood glucose
- DPPH• IC50 ([2]; 30 min): 6.3 ± 1.3 µg/mL
- IC50 ([2]; data in parenthesis are in μM): 25.8 µM
- Protection from oxidative stress (ROS) caused by the carcinogen, MCF-10A (MCF-10A cells): able to protect
- Mechanism of alpha-glucosidase inhibition (alpha-glucosidase): non-competitive
- HOCl IC50 (HOCl scavenging activity): 1.2 ± 0.5 µg/mL
- Blood glucose, diabetic mice (diabetic mice): lowered the blood glucose
- Glucose tolerance, diabetic mice (diabetic mice): improved glucose tolerance
- IC50 [3]: 350 µM
- Inhibition of Amyloid Fibrils (%), MGO [4]: 100 ± 3.8 ^a %
